Assay results published in patent US4915931A, “Tc-99m mononuclide complex compound” (Nihon Medi-Physics Co., Ltd., priority 1988, dated 1990).
Like-named read-outs stand apart in the source and are kept apart here.

Columns and labels:
[1] = assay type: in vivo; settings: mouse
Experimental: The ^99m Tc-PETS solution as obtained in Example 1 was injected into mice through the tail vein in an amount of 0.1 ml/animal. The mice were sacrificed at pre-determined times after the injection. The radioactivities and weights of various organs and blood taken from the sacrificed mice were measured, and the remaining percentages per gram of each organ were determined. The results are shown in Table 1 wherein the relative ratio of each organ to blood was also shown therein.

[2] = 7 minutes from the administration

For “Tc-99m-labeled pentane-2,4-dione-bis(N-methylthiosemicarbazone) complex compound [^99m Tc-PETS]”, the “distribution ratio brain/blood” value [1, 2] was 1.67 ratio (unitless), the “distribution ratio heart/blood” value [1, 2] was 2.16 ratio (unitless) and the “distribution ratio pancreas/blood” value [1, 2] was 2.66 ratio (unitless). The “distribution to brain, heart and pancreas after administration” value ([1]; i.v. tail vein) was “rapidly distributed to brain, heart and pancreas”, the “Body distribution, Blood” value ([1]; i.v. tail vein, 0.5 min) was 4.31 %/g organ and the “Body distribution, Brain” value ([1]; i.v. tail vein, 0.5 min) was 4.68 %/g organ. The “Body distribution, Heart” value ([1]; i.v. tail vein, 0.5 min) was 15.60 %/g organ, the “Body distribution, Intestine” value ([1]; i.v. tail vein, 0.5 min) was 2.60 %/g organ and the “Body distribution, Kidney” value ([1]; i.v. tail vein, 0.5 min) was 15.30 %/g organ. The “Body distribution, Liver” value ([1]; i.v. tail vein, 0.5 min) was 4.83 %/g organ, the “Body distribution, Lung” value ([1]; i.v. tail vein, 0.5 min) was 11.80 %/g organ and the “Body distribution, Pancreas” value ([1]; i.v. tail vein, 0.5 min) was 7.11 %/g organ. The “Body distribution, Spleen” value ([1]; i.v. tail vein, 0.5 min) was 2.20 %/g organ, the “Body distribution, Stomach” value ([1]; i.v. tail vein, 0.5 min) was 1.95 %/g organ and the Brain/blood ratio ([1]; i.v. tail vein, 0.5 min) was 1.09. For the same substance, the Pancreas/blood ratio ([1]; i.v. tail vein, 0.5 min) was 1.60, the heart/blood ratio ([1]; i.v. tail vein, 0.5 min) was 3.52 and the “Body distribution, Blood” value ([1]; i.v. tail vein, 2 min) was 3.21 %/g organ. The “Body distribution, Brain” value ([1]; i.v. tail vein, 2 min) was 4.16 %/g organ, the “Body distribution, Heart” value ([1]; i.v. tail vein, 2 min) was 6.31 %/g organ and the “Body distribution, Intestine” value ([1]; i.v. tail vein, 2 min) was 3.17 %/g organ. The “Body distribution, Kidney” value ([1]; i.v. tail vein, 2 min) was 10.90 %/g organ, the “Body distribution, Liver” value ([1]; i.v. tail vein, 2 min) was 11.70 %/g organ and the “Body distribution, Lung” value ([1]; i.v. tail vein, 2 min) was 8.18 %/g organ. For the same substance, the “Body distribution, Pancreas” value ([1]; i.v. tail vein, 2 min) was 7.32 %/g organ, the “Body distribution, Spleen” value ([1]; i.v. tail vein, 2 min) was 3.24 %/g organ and the “Body distribution, Stomach” value ([1]; i.v. tail vein, 2 min) was 2.66 %/g organ. For the same substance, the Brain/blood ratio ([1]; i.v. tail vein, 2 min) was 1.30, the Pancreas/blood ratio ([1]; i.v. tail vein, 2 min) was 2.29 and the heart/blood ratio ([1]; i.v. tail vein, 2 min) was 2.17. The “Body distribution, Blood” value ([1]; i.v. tail vein, 5 min) was 2.34 %/g organ, the “Body distribution, Brain” value ([1]; i.v. tail vein, 5 min) was 2.93 %/g organ and the “Body distribution, Heart” value ([1]; i.v. tail vein, 5 min) was 4.08 %/g organ. For the same substance, the “Body distribution, Intestine” value ([1]; i.v. tail vein, 5 min) was 3.65 %/g organ, the “Body distribution, Kidney” value ([1]; i.v. tail vein, 5 min) was 6.20 %/g organ and the “Body distribution, Liver” value ([1]; i.v. tail vein, 5 min) was 20.10 %/g organ. For the same substance, the “Body distribution, Lung” value ([1]; i.v. tail vein, 5 min) was 3.95 %/g organ, the “Body distribution, Pancreas” value ([1]; i.v. tail vein, 5 min) was 4.30 %/g organ and the “Body distribution, Spleen” value ([1]; i.v. tail vein, 5 min) was 3.72 %/g organ. For the same substance, the “Body distribution, Stomach” value ([1]; i.v. tail vein, 5 min) was 1.97 %/g organ, the Brain/blood ratio ([1]; i.v. tail vein, 5 min) was 1.37 and the Pancreas/blood ratio ([1]; i.v. tail vein, 5 min) was 1.86. For the same substance, the heart/blood ratio ([1]; i.v. tail vein, 5 min) was 1.88, the “Body distribution, Blood” value ([1]; i.v. tail vein, 7 min) was 1.21 %/g organ and the “Body distribution, Brain” value ([1]; i.v. tail vein, 7 min) was 1.85 %/g organ. For the same substance, the “Body distribution, Heart” value ([1]; i.v. tail vein, 7 min) was 2.41 %/g organ, the “Body distribution, Intestine” value ([1]; i.v. tail vein, 7 min) was 2.96 %/g organ and the “Body distribution, Kidney” value ([1]; i.v. tail vein, 7 min) was 5.03 %/g organ. For the same substance, the “Body distribution, Liver” value ([1]; i.v. tail vein, 7 min) was 19.10 %/g organ, the “Body distribution, Lung” value ([1]; i.v. tail vein, 7 min) was 2.87 %/g organ and the “Body distribution, Pancreas” value ([1]; i.v. tail vein, 7 min) was 3.18 %/g organ. For the same substance, the “Body distribution, Spleen” value ([1]; i.v. tail vein, 7 min) was 3.06 %/g organ, the “Body distribution, Stomach” value ([1]; i.v. tail vein, 7 min) was 1.63 %/g organ and the Brain/blood ratio ([1]; i.v. tail vein, 7 min) was 1.67. The Pancreas/blood ratio ([1]; i.v. tail vein, 7 min) was 2.66, the heart/blood ratio ([1]; i.v. tail vein, 7 min) was 2.16 and the “Body distribution, Blood” value ([1]; i.v. tail vein, 15 min) was 1.46 %/g organ. For the same substance, the “Body distribution, Brain” value ([1]; i.v. tail vein, 15 min) was 0.97 %/g organ, the “Body distribution, Heart” value ([1]; i.v. tail vein, 15 min) was 1.76 %/g organ and the “Body distribution, Intestine” value ([1]; i.v. tail vein, 15 min) was 4.63 %/g organ. The “Body distribution, Kidney” value ([1]; i.v. tail vein, 15 min) was 4.40 %/g organ, the “Body distribution, Liver” value ([1]; i.v. tail vein, 15 min) was 21.90 %/g organ and the “Body distribution, Lung” value ([1]; i.v. tail vein, 15 min) was 2.56 %/g organ. The “Body distribution, Pancreas” value ([1]; i.v. tail vein, 15 min) was 2.19 %/g organ, the “Body distribution, Spleen” value ([1]; i.v. tail vein, 15 min) was 1.98 %/g organ and the “Body distribution, Stomach” value ([1]; i.v. tail vein, 15 min) was 1.50 %/g organ. For the same substance, the Brain/blood ratio ([1]; i.v. tail vein, 15 min) was 0.68, the Pancreas/blood ratio ([1]; i.v. tail vein, 15 min) was 1.52 and the heart/blood ratio ([1]; i.v. tail vein, 15 min) was 1.21. For the same substance, the “Body distribution, Blood” value ([1]; i.v. tail vein, 30 min) was 3.27 %/g organ, the “Body distribution, Brain” value ([1]; i.v. tail vein, 30 min) was 0.63 %/g organ and the “Body distribution, Heart” value ([1]; i.v. tail vein, 30 min) was 2.01 %/g organ. The “Body distribution, Intestine” value ([1]; i.v. tail vein, 30 min) was 7.68 %/g organ, the “Body distribution, Kidney” value ([1]; i.v. tail vein, 30 min) was 5.06 %/g organ and the “Body distribution, Liver” value ([1]; i.v. tail vein, 30 min) was 31.70 %/g organ. The “Body distribution, Lung” value ([1]; i.v. tail vein, 30 min) was 3.20 %/g organ, the “Body distribution, Pancreas” value ([1]; i.v. tail vein, 30 min) was 2.05 %/g organ and the “Body distribution, Spleen” value ([1]; i.v. tail vein, 30 min) was 2.85 %/g organ. For the same substance, the “Body distribution, Stomach” value ([1]; i.v. tail vein, 30 min) was 2.31 %/g organ, the Brain/blood ratio ([1]; i.v. tail vein, 30 min) was 0.19 and the Pancreas/blood ratio ([1]; i.v. tail vein, 30 min) was 0.69. For the same substance, the heart/blood ratio ([1]; i.v. tail vein, 30 min) was 0.62, the octanol/buffer distribution ratio (n-octanol / 0.06 M phosphate buffer, pH 7.0, 37° C., 15 min) was 191.3 and the “lipophilic property compared with ^99m Tc-KTS” value (octanol/buffer, pH 7) was “much higher than that of ^99m Tc-KTS”.
